Measured values from US20230255953A1, “USE OF ROLUPERIDONE IN PREVENTING RELAPSE IN SCHIZOPHRENIA PATIENTS” (Minerva Neurosciences, Inc., priority 2022, published 2023).

System: patients with negative symptoms of schizophrenia
Experiment: Study #2 (MIN-101C07): safety and tolerability (TEAEs, QT)
Type: in vivo, human
Conditions: for Incidence of TEAEs: DB period
Excerpt: Study #2 (also referred to as “MIN101C07”) was a Phase 3, randomized, DB, placebo-controlled, parallel-group 12-week study to evaluate the efficacy and safety of Roluperidone in patients ≥18 years to ≤55 years with negative symptoms of schizophrenia, followed by a 40-week OL extension. The study consisted of a pretreatment screening period of up to 28 days (including an antipsychotic medication washout period), a 12-week, DB, placebo-controlled period, and a 40-week OL period. Eligible patients (with moderate to severe negative symptoms of schizophrenia and stable positive symptoms but without severe symptoms of suspiciousness, agitation, hostility, uncooperativeness, or poor impulse control) were randomized 1:1:1 to receive Roluperidone 32 mg QD, Roluperidone 64 mg QD (GR01/B formulation, see U.S. Pat. No. 11,464,744), or placebo, orally, for 12 weeks. […] During the 40-week OL treatment extension, patients who were initially randomized to Roluperidone 32 mg or 64 mg continued treatment with the same dose, while patients who were initially randomized to placebo crossed over to Roluperidone 32 mg or 64 mg in a 1:1 ratio.
The incidence of TEAEs was slightly higher in the Roluperidone groups than in the placebo group during the DB period (42% in the 32 mg Roluperidone group, 37% in the 64 mg Roluperidone group, and 33% in the placebo group). The majority of TEAEs reported were in the System Organ Class (SOC) psychiatric disorders. The most commonly reported TEAEs were insomnia, schizophrenia, anxiety, agitation, and headache. […] In total, 6 patients met stopping criteria due to QT prolongations, and 4 of these 6 patients were discontinued from the study due to such prolongations. The remaining 2 patients were discontinued for other reasons prior to confirming their QT prolongations.

For “1H-Isoindol-1-one,2-[ [1-[2-(4-fluorophenyl)-2-oxoethyl]-4-piperidinyl]methyl]-2,3-dihydro-, hydrochloride, hydrate (1:1:2) [Roluperidone]”, the “Change in safety laboratory parameters, including prolactin” value was “no significant change”, the “Change in vital signs, including weight and waist circumference” value was “no significant change” and the “Incidence of TEAEs” value (32 mg) was 42%. The “Incidence of TEAEs” value (64 mg) was 37%, the Tolerability (32 and 64 mg) was “generally well tolerated” and the “Patients who met stopping criteria due to QT prolongations” value (in total) was 6 patients. The QT prolongation (majority of clinically significant prolongations with 64 mg) was “Dose-related QT prolongation was observed” and the “Patients discontinued from the study due to QT prolongations” value (of the 6 meeting stopping criteria) was 4 patients.
